Measurements reported in patent publication EP0563345B1, “NOVEL 4-ARYLPIPERAZINES AND 4-ARYLPIPERIDINES” (MCNEILAB, INC., priority 1991, dated 1993).
pKi: −log10 of the molar value. Where two headings read alike, the source gives them in different places.

What was measured:
[1] = tested on: Male, Fischer 344 rats; experiment: Block of Conditioned Avoidance Responding (Rat) test (CAR); details: for CAR 5 mg/kg IP Administration (% change CAR) / CAR 15 mg/kg IP Administration (% change CAR): negative number = blockade of CAR
Description: Apparatus: Rat operant chambers, housed within sound attenuated booths, both from Capden Instruments Ltd., were used in this test. The test chamber (8" H x […] D) is constructed of aluminum and plexiglass with floor grid bars of stainless-steel (1/8" O.D.) spaced 9/16" apart. A stainless-steel operation level 1-1/2" wide projects 3/4" into the chamber and is positioned 2-2/8" above the grid floor. The shock stimulus is delivered via the grid floor by a Coulbourn Instruments solid state module. The parameters of the test and the collection of data are controlled automatically.
The rats are trained for two weeks to approach criterion levels in the avoidance test (90% avoidance rate). One-hour training sessions are run at about the same time each day for four or five days a week. The training session consists of 120 trials, with the conditioned stimuli presented every 30 sec. A trial begins with presentation of the conditioned stimuli (a light and a tone). If the rat responds by depressing the operant lever during the 15-second presentation of the conditioned stimuli, the trial is terminated and the animal is credited with a CAR. Failure to respond during the conditioned stimuli causes the presentation of the unconditioned stimulus (UCS), a 0.7 mA shock which is accompanied by a light and tone for five seconds. If the rat depressed the lever within the ten-second period, the shock and trial are terminated and an escape response recorded. If the rat fails to depress the lever during the UCS (shock), the trial is terminated after ten seconds of shock and the absence of a response is scored as a failure to escape. Intertrial level presses have no effect. If a rat performs at the 90% CAR level for two weeks, it is then run twice a week on the test schedule (see below) until baseline performance stabilized.
Trained rats are run in a one-hour session on two consecutive days at the same time and in the same test chamber each day. The sessions consist of 60 trials, one every minute. The conditioned stimuli are presented for 15 sec (maximum) and the unconditioned stimuli five sec (maximum). On Day 1, a vehicle solution is administered to the rats at a time preceding the trial run corresponding to the pretreatment time for the test compound. The route of administration and the volume of vehicle are also matched to that of the test compound.
The percent change in CAR on the drug treatment day compared to vehicle pretreatment day is the key measure. The percent change (% change) in CAR is determined using the following formula: % change CAR = ((% CAR for Day 2/% CAR for Day 1) x 100)-100 [formula]
A negative number indicates a blockade of CAR, whereas a positive number would indicate increased CAR. The test results are reported as the mean % change for the group of rats. Failure to escape, a measure of the general sedative potential of the compound, was calculated for each animal as follows: % Failures = # of Failures to Escape/# of trials [formula]
The % failures, viz., loss of escape, is also reported as a group mean. Failures to escape are monitored closely and a session is terminated if ten failures occurred.
In the Tables and formulas therein, OiPr is isopropoxy, Me is methyl, MeO is methoxy, Et is ethyl, Ph is phenyl, n-Bu is normal butyl, cC6H11 is cyclohexyl, BOC is t-butyloxycarbonyl, Ac is acetyl, and NT is not tested in that partcular test. The escape loss numbers are shown at CAR 5 mg/kg unless otherwise noted.

[2] = tested on: Male Charles-River rats; experiment: Rat Glass Bead Test (propulsive motility of the distal colon); format: in vivo; details: mean expulsion time of glass bead
Experimental: The rat glass bead test is used to evaluate the action of compounds on propulsive motility of the distal colon. Male Charles-River rats weighing 50-90 grams are fasted for at least 18 hours in individual cages with water provided. Groups of rats are then dosed by the indicated route at the appropriate pretreatment time. A 4 mm glass bead is then inserted 3.5 cm into the distal colon through the anus using a 4 mm diameter glass rod. Rats are then placed in open top glass jars and observed for 60 minutes. The time for expulsion of the bead is noted for each rat. Rats not expelling the bead after 60 minutes are necropsied and the presence of the bead in the colon confirmed. […] Statistical analysis is done using one way analysis of variance and Fisher's LSD comparison. A probability of less than 0.05 is considered to be statistically significant.

[3] = molecular target: T1, D-2 (dopamine-2) receptors (Rattus norvegicus, UniProt P61169); experiment: biochemical; format: binding, male, Wistar rats; details: for Ki: rat striatum P2 fraction, 3H-spiperone 0.05 nM, read-out: Receptor Binding (Ki nM) D2
T1 construct: The D2 assay employed a P2 fraction from the striatum, the ligand ^3H-spiperone at a concentration of 0.05 nM; from tissue; host or cells: rat striatum, P2 fraction (synaptosomal membranes), male Wistar rats
Experimental: The dopamine D2 binding activity of compounds was determined using a P2 fraction (synaptosomal membranes) prepared from male, Wistar rats.
The data from this assay were analyzed by calculating the percent inhibition of the binding of the tritiated ligands by given concentrations of the test compound. Kl values, where given, were obtained from the logit analysis of concentration-inhibition curves.

T1 sequence (P61169 whole entry): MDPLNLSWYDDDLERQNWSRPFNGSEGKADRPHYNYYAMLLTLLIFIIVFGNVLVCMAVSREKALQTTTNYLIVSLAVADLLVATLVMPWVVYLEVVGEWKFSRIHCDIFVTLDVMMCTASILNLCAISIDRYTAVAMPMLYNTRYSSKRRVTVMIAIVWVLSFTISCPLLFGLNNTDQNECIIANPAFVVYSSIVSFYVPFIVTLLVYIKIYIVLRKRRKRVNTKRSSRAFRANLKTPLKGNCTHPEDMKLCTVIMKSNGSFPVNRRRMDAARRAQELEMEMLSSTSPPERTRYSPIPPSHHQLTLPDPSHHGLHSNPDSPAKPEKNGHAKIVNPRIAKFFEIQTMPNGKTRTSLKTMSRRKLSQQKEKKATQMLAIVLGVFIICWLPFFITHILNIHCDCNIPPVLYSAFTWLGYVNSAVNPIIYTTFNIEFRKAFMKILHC

Row | Compound | CAR 5 mg/kg IP Administration (% change CAR) [1] [%] | (Escape Loss) % failures to escape ([1]; at CAR 5 mg/kg IP) [%] | CAR 15 mg/kg IP Administration (% change CAR) [1] [%] | (Escape Loss) % failures to escape ([1]; at CAR 15 mg/kg IP) [%] | Ki [3] [nM] | other results
1 | O=C(c1cccc(CN2CCN(c3nsc4ccccc34)CC2)c1)N1CCCCC1 [Compound 32] | -90 | 8 |  |  |  | Glass bead expulsion time ([2]; IP, 1.0 mg/kg): 41 min
2 | O=C(c1cccc(CN2CCN(c3cccc(C(F)(F)F)c3)CC2)c1)N1CCCCC1 [Compound 92] |  |  | -72 | 3 |  | Glass bead expulsion time ([2]; IP, 1.0 mg/kg): 17 min
3 | CC(C)Oc1ccccc1N1CCN(Cc2cccc(C(=O)N(C)C3CCCCC3)c2)CC1 [Compound 72] | -99 | 21 |  |  |  | Glass bead expulsion time ([2]; IP, 1.0 mg/kg): 29 min
4 | CCOc1ccccc1N1CCN(Cc2cccc(C(=O)N3CCCCCC3)c2)CC1 [Compound 83] | -97 | 26 |  |  |  | Glass bead expulsion time ([2]; IP, 1.0 mg/kg): 21 min
5 | CCOC(=O)C1CCCCN1C(=O)c1cccc(CN2CCN(c3ccccc3C)CC2)c1 (stereo not shown) [Compound 18] |  |  | -24 | 9 | 132 | 
6 | CCOC(=O)C1CCN(C(=O)c2cccc(CN3CCN(c4ccccc4OC(C)C)CC3)c2)CC1 [Compound 42] | -18 | 0 |  |  | 121 | 
7 | CC(C)Oc1ccccc1N1CCN(Cc2cccc(C(=O)N3CCCC3CO)c2)CC1 (stereo not shown) [Compound 26] |  |  | -100 | 43 | 9 | 
8 | COc1ccc(CN2CCN(c3ccccc3OC(C)C)CC2)cc1C(=O)N1CCCCC1 [Compound 29] | -98 | 50 |  |  | 32 | 
9 | CC(=O)N(C)C(=O)c1cccc(CN2CCN(c3ccccc3OC(C)C)CC2)c1 [Compound 73] | -48 | 22 |  |  |  | Glass bead expulsion time ([2]; PO, 40.0 mg/kg): 25 min
10 | CC(C)Oc1ccccc1N1CCN(Cc2cccc(C(=O)N3CCC(=O)CC3)c2)CC1 [Compound 44] | -68 | 16 |  |  |  | pKi [3]: 7.38
11 | O=C(c1cccc(CN2CCN(c3ncccn3)CC2)c1)N1CCc2ccccc21 [Compound 23] |  |  | -62 | 9 | > 1000 | 
12 | CC(C)Oc1ccccc1N1CCN(Cc2cccc(C(=O)N(C)Cc3ccccc3)c2)CC1 [Compound 74] | -23 | 1 |  |  | 13 | 
13 | N#Cc1ccccc1N1CCN(Cc2cccc(C(=O)N3CCCCC3)c2)CC1 [Compound 90] | -74 | 5 |  |  |  | Glass bead expulsion time ([2]; IP, 1.0 mg/kg): 27 min
14 | CC(C)Oc1ccccc1N1CCN(Cc2cccc(C(=O)N3CCCCCCC3)c2)CC1 [Compound 55] | -93 | 27 |  |  |  | Glass bead expulsion time ([2]; IP, 1.0 mg/kg): 13 min
15 | CC(C)Oc1ccccc1N1CCN(Cc2cccc(C(=O)NCCCCCCN)c2)CC1 [Compound 97] |  |  | -99 | 26 | 15 | 
16 | CC(C)Oc1ccccc1N1CCN(Cc2cccc(C(=O)N3CCC[C@H]3CO)c2)CC1 [Compound 16] |  |  | -99 | 35 | 5.1 | 
17 | CC(C)Oc1ccccc1N1CCN(Cc2cccc(C(=O)Nc3ccc(F)cc3)c2)CC1 [Compound 75] |  |  |  |  | ~30 | CAR IP Administration (% change CAR) at 30 mg/kg ([1]; 30 mg/kg IP): -1%; (Escape Loss) % failures to escape ([1]; at CAR 30 mg/kg IP): 0%
18 | COc1ccc(CN2CCC(c3ccccc3OC(C)C)CC2)cc1C(=O)N1[C@H](C)CCC[C@@H]1C [Compound 15] |  |  | -86 | 30 | 43 | 
19 | C[C@@H]1CCC[C@H](C)N1C(=O)c1cccc(CN2CCN(c3ccc(Cl)c(Cl)c3)CC2)c1 [Compound 14] |  |  | -63 | 3 | 6.5 | 
20 | CC(C)Oc1ccccc1N1CCN(Cc2cccc(C(=S)N3CCCCC3)c2)CC1.Cl [Compound 1, 1-[3-[[4-[2-(1-Methylethoxy)phenyl]-1-piperazinyl]methyl]thiobenzoyl]piperidine Hydrochloride] | -71 | 20 |  |  | 8 | 
21 | CC(C)Oc1ccccc1N1CCN(Cc2cccc(C(=O)N3CCOCC3)c2)CC1 [Compound 56] |  |  |  |  |  | Glass bead expulsion time ([2]; IP, 1.0 mg/kg): 15 min
22 | CC(C)Oc1ccccc1N1CCN(Cc2cccc(C(=O)N3CCCCCCC3=O)c2)CC1 [Compound 67] | -28 | 7 |  |  | 10.2 | 
23 | CC(C)Oc1ccccc1N1CCN(Cc2cccc(C(=O)N3CCC4CCCCC4C3)c2)CC1 (stereo not shown) [Compound 61] | -36 | 3 |  |  | 11.4 | 
24 | CC(C)Oc1ccccc1N1CCN(Cc2cccc(C(=O)N3CCN(c4ccccc4OC(C)C)CC3)c2)CC1 [Compound 50] | 0 | 1 |  |  | 171 | 
25 | CC(C)Oc1ccccc1N1CCN(Cc2ccc(N)c(C(=O)N3CCCCC3)c2)CC1 [Compound 17] |  |  | -100 | 87 | 6.4 | 
26 | CC(C)Oc1ccccc1N1CCN(Cc2cccc(C(=O)N3C(C)(C)CCCC3(C)C)c2)CC1 [Compound 12] |  |  | -92 | 9 | 4.7 | 
27 | O=C(c1cccc(CN2CCN(c3cc(Cl)cc(Cl)c3)CC2)c1)N1CCCCC1 [Compound 94] | -43 | 3 |  |  | 21 | 
28 | CC(C)Oc1ccccc1C1CCN(Cc2cccc(C(=O)N3CCOCC3)c2)CC1 [Compound 41] | -96 | 70 |  |  | 9.6 | 
29 | CC(C)Oc1ccccc1N1CCN(Cc2cccc(C(=O)N(C)CCc3ccccc3)c2)CC1 [Compound 43] |  |  | -77 | 0 | 19 | 
